Tested on: iNKT cells
Test: iNKT cells co-cultured with CD1d+ cells, cytokine release
Format: cell-based
Description: iNKT cells were treated with an α-S-linked galactosylceramide (alpha-GalCer) to determine immunostimulatory activity. FIGS. 4 and 5 show the amounts of interferon-gamma and IL-4 released (expressed as a fold-increase over the levels produced in responses to the mock-transfected cells alone) in 5 experiments. Cytokine was released when iNKT cells were co-cultured with CD1d+ cells in the absence of added glycolipid (second bar). This was enhanced for both cytokines when alpha-GalCer was added and blocked using an antibody specific for CD1d.

[1] = iNKT cells co-cultured with CD1d+ cells, compared with no added glycolipid, 5 experiments, FIGS. 4 and 5

CCCCCCCCCCCCCCCCCCCCCCCCCC(=O)N[C@@H](CO[C@H]1O[C@H](CO)[C@H](O)[C@H](O)[C@H]1O)[C@H](O)[C@H](O)CCCCCCCCCCCCCC [alpha-GalCer]
effect of antibody specific for CD1d on glycolipid-induced cytokine release (iNKT cells co-cultured with CD1d+ cells plus anti-CD1d antibody, both cytokines): blocked | IL-4 released (fold-increase over the levels produced in response to mock-transfected cells alone) [1]: enhanced | interferon-gamma released (fold-increase over the levels produced in response to mock-transfected cells alone) [1]: enhanced

— patent publication US20100184711A1, “Alpha-GLYCOSYL THIOLS AND alpha-S-LINKED GLYCOLIPIDS” (UNIVERSITY COLLEGE DUBLIN, NATIONAL UNIVERSITY OF IRELAND, …, priority 2008, published 2010)
